Measurements as given in patent US20150290232A1, “DRUG COMPOSITION FOR TREATING TUMORS AND APPLICATION THEREOF” (priority 2012, published 2015).
Like-named read-outs stand apart in the source and are kept apart here.

Legend:
Format in all cases: cell-based
[1] = system: U87-MG (malignant glioma cell); assay: MTT cell viability, human solid tumor cells; conditions: U-87 MG, 72 h; for IC50: read-out: concentration (IC50 value of 72 hours)
Description: (§1) Well-growing cells of above were obtained and inoculated into wells of a 96-well cell culture plate at 5000 cells/well. Individual compounds of various concentrations were added, mixed uniformly, and incubated (5% CO2) at 37° C. for 72 hours. Then the cell viability was determined by the MTT method.
(§2) b) Determine the inhibitory effects of TTD in combination with Ada A on the human solid tumor cells. The pretreatment of the cells was the same as in a). The control group was not treated with the compound while administered. […] As to the combination group, two compounds were added together into the same group of wells, with the fmal concentration being the concentration to which the IC50 of the single drugs correspond. After 72 hours of incubation, the MTT method was used for the determination of cell viability. The cell viability of the control group was set to 100% in this experiment, and the TTD, Ada A single drug and combined effects on cell viability (%) were calculated.

PC-3 (prostate cancer) = assay: MTT cell viability, human solid tumor cells; conditions: 72 h; for IC50: read-out: concentration (IC50 value of 72 hours)
Description: as §1, §2

[2] = system: Panc-1 (pancreatic cancer); assay: MTT cell viability, human solid tumor cells; conditions: for IC50: read-out: concentration (IC50 value of 72 hours)
Description: as §1, §2

A549 (human lung cancer) = assay: MTT cell viability, human solid tumor cells; conditions: for IC50: read-out: concentration (IC50 value of 72 hours)
Description: as §1, §2

[3] = system: Becap-37 (human breast cancer cell); assay: MTT cell viability, human solid tumor cells; conditions: 72 h; for IC50: read-out: concentration (IC50 value of 72 hours)
Description: as §1, §2

[4] = system: SPC-A-1 (human lung adenocarcinoma cell); assay: MTT cell viability, human solid tumor cells; conditions: for IC50: read-out: concentration (IC50 value of 72 hours)
Description: as §1, §2

[5] = system: Hela (human cervical cancer cell); assay: MTT cell viability, human solid tumor cells; conditions: 72 h; for IC50: read-out: concentration (IC50 value of 72 hours)
Description: as §1, §2

[6] = system: Hep G2 (human hepatoma carcinoma cell); assay: MTT cell viability, human solid tumor cells; conditions: for IC50: read-out: concentration (IC50 value of 72 hours)
Description: as §1, §2

[7] = system: CNE (nasopharyngeal carcinoma cell); assay: MTT cell viability, human solid tumor cells; conditions: 72 h; for IC50: read-out: concentration (IC50 value of 72 hours)
Description: as §1, §2

[8] = system: SK-OV-3 (ovarian cancer cell); assay: MTT cell viability, human solid tumor cells; conditions: for IC50: read-out: concentration (IC50 value of 72 hours)
Description: as §1, §2

MG63 (osteosarcoma) = assay: MTT cell viability, human solid tumor cells; conditions: for IC50: read-out: concentration (IC50 value of 72 hours)
Description: as §1, §2

[9] = system: MGC-803 (human gastric cancer cell); assay: MTT cell viability, human solid tumor cells; conditions: for IC50: read-out: concentration (IC50 value of 72 hours)
Description: as §1, §2

[10] = system: RKO (human colon adenocarcinoma cell); assay: MTT cell viability, human solid tumor cells; conditions: 72 h; for IC50: read-out: concentration (IC50 value of 72 hours)
Description: as §1, §2

[11] = system: Huh7 (human liver cancer cell); assay: MTT cell viability, human solid tumor cells; conditions: for IC50: read-out: concentration (IC50 value of 72 hours)
Description: as §1, §2

[12] = system: Hep2 (laryngeal carcinoma); assay: MTT cell viability, human solid tumor cells; conditions: for IC50: read-out: concentration (IC50 value of 72 hours)
Description: as §1, §2

[13] = system: Raji (human Burkitt lymphoma cells); assay: MTT cell viability, lymphoma and myeloma cells; conditions: 72 h; for IC50: read-out: concentration (IC50 value of 72 hours)
Description: (§3) Well-growing cells of above were obtained and inoculated into wells of a 96-well cell culture plate at 5000 cells/well. Separate compounds of various concentrations were added, mixed uniformly, and incubated (5% CO2) at 37° C. for 72 hours. Then the cell viability was determined by the MTT method.
(§4) b) Determine the inhibitory effects of TTD in combination with Ada A on the above cells. The pretreatment of the cells was the same as in a). The control group was not treated with the compound while administered. […] As to the combination group, two compounds were added together into the same group of wells, with the fmal concentrations being the concentrations to which the IC50 values of the two single drugs correspond. After 72 hours of incubation, the MTT method was used for the determination of cell viability. The cell viability of the control group was set to 100% in this experiment, and the TTD, Ada A single drug and combined effects on cell viability (%) were calculated.

[14] = system: RPMI 8226 (multiple myeloma); assay: MTT cell viability, lymphoma and myeloma cells; conditions: Homo sapiens; for IC50: read-out: concentration (IC50 value of 72 hours)
Description: as §3, §4

[15] = system: CaES-17 (esophageal cancer cell); assay: MTT cell viability, human solid tumor cells; conditions: for IC50: read-out: concentration (IC50 value of 72 hours)
Description: as §1
b) Determine the inhibitory effects of TTD in combination with Ada A on the human solid tumor cells. The pretreatment of the cells was the same as in a). The control group was not treated with the compound while administered. The two single-drug groups were added with respective active component to the concentration under which the IC50 of two compounds in a) achieve. As to the combination group, two compounds were added together into the same group of wells, with the fmal concentration being the concentration to which the IC50 of the single drugs correspond. After 72 hours of incubation, the MTT method was used for the determination of cell viability. The cell viability of the control group was set to 100% in this experiment, and the TTD, Ada A single drug and combined effects on cell viability (%) were calculated.

[16] = CaEs17, 72 h, read-out: CV (cell viability)

CC[C@@]1(O)C[C@H](O[C@H]2C[C@H](N(C)C)[C@H](O[C@H]3C[C@H](O)[C@H](O[C@H]4CCC(=O)[C@H](C)O4)[C@H](C)O3)[C@H](C)O2)c2c(cc3c(c2O)C(=O)c2c(O)cccc2C3=O)[C@H]1C(=O)OC [Acla A, aclarubicin A] was tested, and the viability at 0.21 µg/mL ([1]; read-out: CV (cell viability)) was 54.1%, the IC50 [1] was 0.21 µg/mL and the viability at 0.8 µg/mL (PC-3 (prostate cancer); read-out: CV (cell viability)) was 46.1%. For the same compound, the IC50 (PC-3 (prostate cancer)) was 0.8 µg/mL, the viability at 0.25 µg/mL ([2]; PANC-1, 72 h, read-out: CV (cell viability)) was 58% and the IC50 ([2]; PANC-1, 72 h) was 0.25 µg/mL. It also gave a viability at 0.08 µg/mL (A549 (human lung cancer); A549, 72 h, read-out: CV (cell viability)) of 50.4%, an IC50 (A549 (human lung cancer); A549, 72 h) of 0.08 µg/mL and a viability at 0.5 µg/mL ([3]; read-out: CV (cell viability)) of 44.8%. It also gave an IC50 [3] of 0.5 µg/mL, a viability at 0.03125 µg/mL ([4]; SPCA1, 72 h, read-out: CV (cell viability)) of 50.6% and an IC50 ([4]; SPCA1, 72 h) of 0.0312 µg/mL. For the same compound, the viability at 0.095 µg/mL ([5]; HeLa, read-out: CV (cell viability)) was 52.7%, the IC50 ([5]; HeLa) was 0.095 µg/mL and the viability at 0.25 µg/mL ([6]; HepG2, 72 h, read-out: CV (cell viability)) was 51.6%. It also gave an IC50 ([6]; HepG2, 72 h) of 0.25 µg/mL, a viability at 0.15 µg/mL ([7]; read-out: CV (cell viability)) of 48.9% and an IC50 [7] of 0.15 µg/mL. For the same compound, the viability at 0.25 µg/mL ([8]; SK-OV-3, 72 h, read-out: CV (cell viability)) was 53.4%, the IC50 ([8]; SK-OV-3, 72 h) was 0.25 µg/mL and the viability at 0.1 µg/mL (MG63 (osteosarcoma); MG-63, 72 h, read-out: CV (cell viability)) was 46.6%. For the same compound, the IC50 (MG63 (osteosarcoma); MG-63, 72 h) was 0.1 µg/mL, the viability at 0.1 µg/mL ([9]; MGC-803, 72 h, read-out: CV (cell viability)) was 42.2% and the IC50 ([9]; MGC-803, 72 h) was 0.1 µg/mL. The viability at 0.04 µg/mL ([10]; read-out: CV (cell viability)) was 49.6%, the IC50 [10] was 0.04 µg/mL and the viability at 0.05 µg/mL ([11]; Huh-7, 72 h, read-out: CV (cell viability)) was 44.5%. It also gave an IC50 ([11]; Huh-7, 72 h) of 0.05 µg/mL, a viability at 0.25 µg/mL ([12]; HEp-2, 72 h, read-out: CV (cell viability)) of 51% and an IC50 ([12]; HEp-2, 72 h) of 0.25 µg/mL. For the same compound, the viability at 0.03 µg/mL ([13]; read-out: CV (cell viability)) was 42.6%, the IC50 [13] was 0.03 µg/mL and the viability at 0.035 µg/mL ([14]; RPMI-8226, 72 h, read-out: CV (cell viability)) was 42.1%. For the same compound, the IC50 ([14]; RPMI-8226, 72 h) was 0.035 µg/mL, the viability at 0.24 µg/mL [15, 16] was 45.4% and the IC50 ([15]; CaEs17, 72 h) was 0.24 µg/mL.
For COc1ccc2cc1Oc1ccc(cc1)C[C@H]1c3cc(c(OC)cc3CCN1C)Oc1c(OC)c(OC)cc3c1[C@H](C2)N(C)CC3 [TTD, tetrandrine], the viability at 2.37 µg/mL ([1]; U87-MG, TTD 2.37 μg/mL, MTT, control = 100%, read-out: CV (cell viability)) was 47.7%, the IC50 ([1]; U87-MG, single compound, MTT) was 2.37 µg/mL and the viability at 4.5 µg/mL (PC-3 (prostate cancer); PC-3, TTD 4.5 μg/mL, MTT, control = 100%, read-out: CV (cell viability)) was 47%. For the same compound, the IC50 (PC-3 (prostate cancer); PC-3, single compound, MTT) was 4.5 µg/mL, the viability at 4.67 µg/mL ([2]; Panc-1, TTD 4.67 μg/mL, 72 h, MTT, control = 100%, read-out: CV (cell viability)) was 52.3% and the IC50 ([2]; Panc-1, single compound, 72 h, MTT) was 4.67 µg/mL. It also gave a viability at 8.34 µg/mL (A549 (human lung cancer); A549, TTD 8.34 μg/mL, 72 h, MTT, control = 100%, read-out: CV (cell viability)) of 47.6%, an IC50 (A549 (human lung cancer); A549, single compound, 72 h, MTT) of 8.34 µg/mL and a viability at 3 µg/mL ([3]; Becap-37, TTD 3 μg/mL, MTT, control = 100%, read-out: CV (cell viability)) of 56.1%. It also gave an IC50 ([3]; Becap-37, single compound, MTT) of 3 µg/mL, a viability at 3.5 µg/mL ([4]; SPCA1, SPC-A-1, TTD 3.5 μg/mL, 72 h, MTT, control = 100%, read-out: CV (cell viability)) of 52.5% and an IC50 ([4]; SPCA1, SPC-A-1, single compound, 72 h, MTT) of 3.5 µg/mL. For the same compound, the viability at 1.25 µg/mL ([5]; Hela, TTD 1.25 μg/mL, MTT, control = 100%, read-out: CV (cell viability)) was 47%, the IC50 ([5]; Hela, single compound, MTT) was 1.25 µg/mL and the viability at 1.5 µg/mL ([6]; HepG2, Hep G2, TTD 1.5 μg/mL, 72 h, MTT, control = 100%, read-out: CV (cell viability)) was 52.5%. For the same compound, the IC50 ([6]; HepG2, Hep G2, single compound, 72 h, MTT) was 1.5 µg/mL, the viability at 3 µg/mL ([7]; CNE, TTD 3 μg/mL, MTT, control = 100%, read-out: CV (cell viability)) was 51.9% and the IC50 ([7]; CNE, single compound, MTT) was 3 µg/mL. The viability at 5 µg/mL ([8]; SK-OV-3, TTD 5 μg/mL, 72 h, MTT, control = 100%, read-out: CV (cell viability)) was 55.9%, the IC50 ([8]; SK-OV-3, single compound, 72 h, MTT) was 5 µg/mL and the viability at 2 µg/mL (MG63 (osteosarcoma); MG-63, MG63, TTD 2 μg/mL, 72 h, MTT, control = 100%, read-out: CV (cell viability)) was 40.8%. It also gave an IC50 (MG63 (osteosarcoma); MG-63, MG63, single compound, 72 h, MTT) of 2 µg/mL, a viability at 3 µg/mL ([9]; MGC-803, TTD 3 μg/mL, 72 h, MTT, control = 100%, read-out: CV (cell viability)) of 50.9% and an IC50 ([9]; MGC-803, single compound, 72 h, MTT) of 3 µg/mL. It also gave a viability at 1.5 µg/mL ([10]; RKO, TTD 1.5 μg/mL, MTT, control = 100%, read-out: CV (cell viability)) of 45.3%, an IC50 ([10]; RKO, single compound, MTT) of 1.5 µg/mL and a viability at 3 µg/mL ([11]; Huh-7, Huh7, TTD 3 μg/mL, 72 h, MTT, control = 100%, read-out: CV (cell viability)) of 54%. The IC50 ([11]; Huh-7, Huh7, single compound, 72 h, MTT) was 3 µg/mL, the viability at 2.59 µg/mL ([12]; HEp-2, Hep2, TTD 2.59 μg/mL, 72 h, MTT, control = 100%, read-out: CV (cell viability)) was 43.8% and the IC50 ([12]; HEp-2, Hep2, single compound, 72 h, MTT) was 2.59 µg/mL. The viability at 1 µg/mL ([13]; TTD 1 μg/mL, MTT, control = 100%, read-out: CV (cell viability)) was 46.9%, the IC50 ([13]; single compound, MTT) was 1 µg/mL and the IC50 ([14]; RPMI 8226, single compound, 72 h, MTT) was 0.3 µg/mL. It also gave a viability at 3.59 µg/mL [15, 16] of 47.1% and an IC50 ([15]; CaEs17, CaES-17, single compound, 72 h, MTT) of 3.59 µg/mL.
